# Data taken from US20240368150A1 (Hoffmann-La Roche Inc., priority 2021, published 2024).
# Tested on: primary human T-cells
# Test: Proliferation assay after 5 days (CellTiter-Glo, CD3 stimulation; PBS counter screen)
# Type: cell-based
# Settings: Homo sapiens, T-cell, 120 h, CD3 stimulation; for Emax: 5 days, normalized to reference compound A1 as stimulator control = 100%, DMSO neutral control, read-out: Emax proliferation (% activation); for EC50: primary human T-cells, CellTiter-Glo after 5 days, EC50 of fitted sigmoidal curve, read-out: Tcell Proliferation CD3 EC50
# Protocol: Compounds are then added (see next section) to medium only plates.
# Cells are assessed for proliferation 5 days later by measuring […] using CellTiterGlo (Promega).
# After 5 days, for detection of ATP which is directly proportional to the number of cells present per well, the CellTiter-Glo® 2.0 Reagent is used. After visual control for toxicity or precipitations of the tested compounds, the plates are equilibrated to room temperature for 45 minutes. CellTiter-Glo® 2.0 Reagent is equilibrated to room temperature as well. After equilibration, an equal amount of CellTiter-Glo reagent is added to the cells (80 μl/well) with an electronic multichannel pipette. Plates are placed on a rocking platform for 15 minutes at room temperature. After incubation, the bottom of the plates is sealed with backing tape. Luminescence is measured with PHERAstar FSX (interval time 0.5 sec, gain 3000, focal height 15 mm) and exported as CSV file for analysis in Genedata screener.
# Compounds which activate unstimulated cells (see IL2 measurements) or compounds which negatively affected viability were flagged.
SMILES,Emax [%],EC50 [nM]
"CCc1cn(-c2cc3c(cc2F)SC[C@H](N)C(=O)N3Cc2ccc(Cl)cc2)nn1 [Example 1, (3R)-3-amino-5-[(4-chlorophenyl)methyl]-7-(4-ethyltriazol-1-yl)-8-fluoro-2,3-dihydro-1,5-benzothiazepin-4-one]",33,> 20000
"N[C@H]1CSc2cc(F)c(-n3cc(Cc4ccc(Cl)cc4)nn3)cc2N(Cc2ccc(Cl)cc2)C1=O [Example 2, (3R)-3-amino-5-[(4-chlorophenyl)methyl]-7-[4-[(4-chlorophenyl)methyl]triazol-1-yl]-8-fluoro-2,3-dihydro-1,5-benzothiazepin-4-one]",34,> 20000
"N[C@H]1CS(=O)(=O)c2cc(F)c(-n3cc(Cc4ccc(Cl)cc4)nn3)cc2N(Cc2ccc(Cl)cc2)C1=O [Example 4, (3R)-3-amino-5-[(4-chlorophenyl)methyl]-7-[4-[(4-chlorophenyl)methyl]triazol-1-yl]-8-fluoro-1,1-dioxo-2,3-dihydro-1λ^6,5-benzothiazepin-4-one]",168,1050
"CCn1nnc(-c2cc3c(cc2F)S(=O)(=O)C[C@H](N)C(=O)N3Cc2ccc(Cl)cc2)n1 [Example 7, (3R)-3-amino-5-[(4-chlorophenyl)methyl]-7-(2-ethyltetrazol-5-yl)-8-fluoro-1,1-dioxo-2,3-dihydro-1λ^6,5-benzothiazepin-4-one]",264,2750
"N[C@H]1CS(=O)(=O)c2cc(F)c(-c3nc(C4CC4)no3)cc2N(Cc2ccc(Cl)cc2)C1=O [Example 40, (3R)-3-amino-5-[(4-chlorophenyl)methyl]-7-(3-cyclopropyl-1,2,4-oxadiazol-5-yl)-8-fluoro-1,1-dioxo-2,3-dihydro-1λ^6,5-benzothiazepin-4-one]",34,> 20000
"CCCc1noc(-c2cc3c(cc2F)S(=O)(=O)C[C@H](N)C(=O)N3Cc2ccc(Cl)cc2)n1 [Example 42, (3R)-3-Amino-5-[(4-chlorophenyl)methyl]-8-fluoro-1,1-dioxo-7-(3-propyl-1,2,4-oxadiazol-5-yl)-2,3-dihydro-1λ^6,5-benzothiazepin-4-one]",80,1310
"N[C@H]1CS(=O)(=O)c2cc(F)c(-c3nc(Cc4ccc(Cl)cc4)no3)cc2N(Cc2ccc(Cl)cc2)C1=O [Example 44, (3R)-3-Amino-5-[(4-chlorophenyl)methyl]-7-[3-[(4-chlorophenyl)methyl]-1,2,4-oxadiazol-5-yl]-8-fluoro-1,1-dioxo-2,3-dihydro-1λ^6,5-benzothiazepin-4-one]",122,702
"N[C@H]1CS(=O)(=O)c2cc(F)c(-c3nc(COCc4ccccc4)no3)cc2N(Cc2ccc(Cl)cc2)C1=O [Example 45, (3R)-3-Amino-7-[3-(benzyloxymethyl)-1,2,4-oxadiazol-5-yl]-5-[(4-chlorophenyl)methyl]-8-fluoro-1,1-dioxo-2,3-dihydro-1λ^6,5-benzothiazepin-4-one]",80,1970
"NCc1noc(-c2cc3c(cc2F)S(=O)(=O)C[C@H](N)C(=O)N3Cc2ccc(Cl)cc2)n1 [Example 50, (3R)-3-amino-7--[3-(aminomethyl)-1,2,4-oxadiazol-5-yl]-5-[(4-chlorophenyl)methyl]-8-fluoro-1,1-dioxo-2,3-dihydro-1λ^6,5-benzothiazepin-4-one]",40,> 20000
"CCc1noc(-c2ccc3c(c2)N(Cc2ccc(Cl)cc2)C(=O)[C@@H](N)CS3(=O)=O)n1 [Example 51, (3R)-3-amino-5-[(4-chlorophenyl)methyl]-7-(3-ethyl-1,2,4-oxadiazol-5-yl)-1,1-dioxo-2,3-dihydro-1λ^6,5-benzothiazepin-4-one]",94,2690
"N[C@H]1CS(=O)(=O)c2cc(F)c(-c3nnc(CCCC(F)(F)F)o3)cc2N(Cc2ccc(Cl)cc2)C1=O [Example 79, (3R)-3-Amino-5-[(4-chlorophenyl)methyl]-8-fluoro-1,1-dioxo-7-[5-(4,4,4-trifluorobutyl)-1,3,4-oxadiazol-2-yl]-2,3-dihydro-1λ^6,5-benzothiazepin-4-one]",154,173
